Source: article PMC8495455, “Discovery of a transdermally deliverable pentapeptide for activating AdipoR1 to promote hair growth” (EMBO Molecular Medicine, 2021)

What was measured:
Adipoq−/− mice = assay: Mouse hair cycle modulation, histology and anagen induction score, Adipoq−/− mice; format: in vivo; details: Unpaired t-test
Source text: (§1) We also evaluated P5 effect in Adipoq ^−/− mouse (Ma et al, [2002]). […] Skin pigmentation was prominent in P5‐treated Adipoq ^−/− mice at day 14 (Fig 4E). […] At day 35, unlike vehicle‐treated Adipoq ^−/− mice showing little pigmentation, P5‐treated Adipoq ^−/− mice manifested hairs with pigmentation (Fig 4E). […] The DP cells in P5‐treated Adipoq ^−/− mice expressed versican (Fig 4G).
(§2) Paraffin‐embedded mouse cutaneous back tissue was sectioned (4 μm thickness) and stained with hematoxylin and eosin. […] IF intensity was observed and recorded with a Nikon Eclipse Ni‐E fluorescence microscope (Nikon).
(§3) For the hair cycle modulation experiment, Adipoq ^−/− (stock #008195; JAX) (Ma et al, [2002]), Adipor1 ^−/− (Yamauchi et al, [2007]; Okada‐Iwabu et al, [2013]), or C57BL/6 (KOATECH) female mice was used (Müller‐Röver et al, [2001]). […] The mouse hair growth score (a value from 0 to 100 based on the skin pigmentation and hair shaft density) was monitored and documented at designated days with the experimenters being blind to the conditions, following a previous study (Chai et al, [2019]). […] On day 35, we obtained dorsal cutaneous tissue for histological analysis: anagen induction scores (calculated using an assigned arbitrary score; telogen = 1, anagen I–VI = 2–7) (Müller‐Röver et al, [2001]).

human ORS cells = assay: MTT cell proliferation assay, ORS cells; format: cell-based; details: 0.5 or 5 μg/ml, 48 h, Paired t-test vs control
Source text: To design transdermally deliverable AdipoR1 agonist, we further assessed the 15‐mer sequence by cutting it into several 5‐mer peptides (Fig EV1B) (Bos & Meinardi, [2000]). Based on the fact that AdipoRs are expressed in HF cells, including dermal papilla (DP) and outer root sheath (ORS) cells (Won et al, [2012]), we performed a cell proliferation assay on human DP and ORS cells to see if there is any potential biological effect of the 5‐mer peptides on the human HF cells.
Dermal papilla cells and ORS cells were seeded into a 96‐well plate (1.0 × 10^4 cells/well) with serum‐free culture media for 24 h and then treated with each candidate 5‐mer peptide (in 0.5 μg/ml or 5 μg/ml) for 48 h. After the addition of MTT solution (20 μl, 5 mg/ml) to each well, the cells were incubated for 4 h at 37°C in the dark room and then incubated with dimethyl sulfoxide (DMSO, 200 μl) for 20 min at room temperature. The samples were assessed by measuring the absorbance at 570 nm with an absorbance microplate reader (VersaMax).

IGF-1 protein = assay: Growth factor protein quantitation in DP cell medium, IGF-1; format: cell-based, human; details: for protein_IGF1: DP cell medium
Source text: Next, we investigated the downstream effects of P5 on hair growth factor genes and proteins in DP cells. […] We tested whether P5 can also increase the mRNA levels and proteins of hair growth factors in DP cells: IGF‐1, VEGF, HGF, platelet‐derived growth factor alpha (PDGFA), and fibroblast growth factor (FGF) 7, which are known to induce or maintain the anagen phase of the hair cycle (Jindo et al, [1994]; Philpott et al, [1994]; Yano et al, [2001]; Jang, [2005]; Tomita et al, [2006]; Iino et al, [2007]).
Human DP cells were grown on a 100‐mm cell culture dish to 100% confluency. After washed by PBS three times, the cells were cultured with serum‐free DMEM and treated with P5. After 48 h, the medium was collected and filtered by a […]. The filtrate was then concentrated using a centrifugal concentrator (Vivaspin 6, 10‐kDa molecular weight cutoff, centrifuged 2,600 g at 4°C for 13 min, Sartorius Stedim Biotech). The signals of each protein in the concentrated media were detected and quantified, based on the enzyme‐linked immunosorbent assay (Human Cytokine Antibody Array C2000, RayBiotech).

[1] = test system: p-AMPK in HF cells of Adipoq−/− mice; assay: IF p-AMPK in HF cells of Adipoq−/− mice after topical P5; format: in vivo; details: Adipoq−/− mouse, topical 0.1 mM P5
Source text: as §1, §2, §3

With “GLYYF [P5, GST-fused (GST-P5) in pulldown assays]” the “Anagen induction score vs vehicle” value (Adipoq−/− mice) was “significantly higher”, the “Cell proliferative effect, ORS cells” value (human ORS cells) was “significant cell proliferative effects” and the protein_IGF1 (IGF-1 protein; P5 5μM, relative to Control = 1, replicate 1) was 0.9827. It also gave a protein_IGF1 (IGF-1 protein; P5 5μM, relative to Control = 1, replicate 2) of 1.413, a protein_IGF1 (IGF-1 protein; P5 5μM, relative to Control = 1, replicate 3) of 2.07 and a protein_IGF1 (IGF-1 protein; P5 25μM, relative to Control = 1, replicate 1) of 1.764. For the same substance, the protein_IGF1 (IGF-1 protein; P5 25μM, relative to Control = 1, replicate 2) was 4.926, the protein_IGF1 (IGF-1 protein; P5 25μM, relative to Control = 1, replicate 3) was 5.716 and the “IGF-1 protein expression level” value (IGF-1 protein; P5-treated DP cells, 48 h medium, n = 3) was “elevated”. For the same substance, the “p-AMPK in ORS cells of telogen HFs” value [1] was “upregulation”.
